Experimental data: patent publication US20080071116A1, “Modulators of Lysophosphatidic Acid (Lpa) Signaling and the Use Thereof” (THE BOARD OF REGENTS OF THE UNIVERSITY OF TEXAS SYSTEM, priority 2004, published 2008)
“Also recorded” adds a separate entry of the source.

Experiments:
[1] = test system: interleukin-8 (IL-8); assay: IL-8 transcription and secretion; format: cell-based, human; conditions: PC-3 cells
[2] = test system: LNCaP cells; assay: calcium mobilization in androgen sensitive prostate cancer LNCaP cells; format: cell-based
[3] = molecular target: LPA2 receptor (Homo sapiens, UniProt Q9HBW0); assay: HA-Erk1 phosphorylation in HEK 293 T cells transfected with LPA2; format: cell-based; parameters: expressed in transfected cells; conditions: LPA2 transfected HEK 293 T; 0.01, 0.1, or 1 μM
Sequence of LPA2 receptor (Q9HBW0 whole entry): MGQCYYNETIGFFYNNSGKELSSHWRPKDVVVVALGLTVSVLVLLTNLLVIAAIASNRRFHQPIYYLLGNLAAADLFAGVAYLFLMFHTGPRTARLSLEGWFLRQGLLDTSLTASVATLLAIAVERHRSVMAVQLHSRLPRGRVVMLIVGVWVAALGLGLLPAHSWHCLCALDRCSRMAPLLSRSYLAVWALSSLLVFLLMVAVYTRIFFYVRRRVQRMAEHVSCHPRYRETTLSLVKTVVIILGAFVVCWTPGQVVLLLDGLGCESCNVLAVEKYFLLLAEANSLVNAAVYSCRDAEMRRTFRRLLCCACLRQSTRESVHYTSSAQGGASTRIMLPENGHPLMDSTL
Excerpt: (§1) We have also tested kinase activation by the LPA3 receptor subtype using OMPT as a tool. We determined whether activation of the LPA3 receptor by OMPT can be linked to ERK activation (related to MAP kinase signaling pathway) in mammalian cells, HEK 293 T cells, by co-transfecting hemagglutinin (HA)-tagged Erk1 (HA-Erk1) with either a control vector or an expression vector having LPA1, LPA2, or LPA3. […] There is no phosphorylation of HA-Erk1 at lower concentration of LPA or OMPT in the absence of LPA receptors. […] Thus, the data confirmed that OMPT, an LPA derivative, is a selective agonist for LPA3 receptor subtype, capable of inducing MAPK activation.

[4] = molecular target: T1, LPA3 receptor (Homo sapiens, UniProt Q9UBY5); assay: HA-Erk1 phosphorylation in HEK 293 T cells transfected with LPA3; format: cell-based; parameters: expressed in transfected cells; conditions: LPA3 transfected HEK 293 T; 0.01, 0.1, or 1 μM
T1 sequence (Q9UBY5 1-353): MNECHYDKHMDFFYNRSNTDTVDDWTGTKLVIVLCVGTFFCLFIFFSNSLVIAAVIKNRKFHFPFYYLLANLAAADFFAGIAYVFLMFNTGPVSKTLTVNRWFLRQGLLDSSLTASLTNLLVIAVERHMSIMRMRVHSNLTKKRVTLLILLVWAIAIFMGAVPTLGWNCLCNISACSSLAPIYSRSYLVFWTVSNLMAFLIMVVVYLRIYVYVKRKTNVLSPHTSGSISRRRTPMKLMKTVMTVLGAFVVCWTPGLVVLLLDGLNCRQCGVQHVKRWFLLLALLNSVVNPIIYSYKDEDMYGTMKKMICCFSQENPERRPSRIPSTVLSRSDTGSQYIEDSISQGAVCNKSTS
Excerpt: as §1

[5] = molecular target: LPA1 receptor (Homo sapiens, UniProt Q92633); assay: HA-Erk1 phosphorylation in HEK 293 T cells transfected with LPA1; format: cell-based; parameters: FLAG; expressed in transfected cells; host or cells: HEK 293 T cells; conditions: LPA1 transfected HEK 293 T; 0.01, 0.1, or 1 μM
Sequence of LPA1 receptor (Q92633 whole entry): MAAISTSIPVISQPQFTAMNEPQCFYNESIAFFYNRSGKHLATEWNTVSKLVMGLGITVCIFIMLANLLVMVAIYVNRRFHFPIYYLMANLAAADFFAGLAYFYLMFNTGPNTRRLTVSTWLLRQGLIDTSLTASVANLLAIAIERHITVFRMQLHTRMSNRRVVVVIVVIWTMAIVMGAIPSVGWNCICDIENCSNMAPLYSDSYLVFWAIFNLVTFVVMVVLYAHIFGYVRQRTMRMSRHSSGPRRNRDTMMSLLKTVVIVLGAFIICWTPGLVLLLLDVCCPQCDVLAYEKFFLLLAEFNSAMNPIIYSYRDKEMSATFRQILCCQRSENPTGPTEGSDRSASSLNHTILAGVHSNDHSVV
Excerpt: as §1

[6] = test system: DU145 cells; assay: focal adhesion in DU145 cells; format: cell-based, human; conditions: FIG. 55
[7] = test system: HT29 cells; assay: calcium mobilization assay in colon cancer HT29 cells; format: cell-based; conditions: HT29 cells (only express LPA2), FIGS. 21-22
Description: The procedures for these calcium mobilization assays are as followed: OVCAR3 cells and PC-3 cells were cultured in RPMI 1640 medium with 10% FBS (fetal bovine serum). HT29 cells were cultured in DMEM (high glucose) medium with 10% FBS. All cells were cultured at about 37° C. in a humidified atmosphere with 5% CO2. After starvation in serum-free medium for about 12-24 hours, cells were harvested and loaded with about 1 μM of Indo-1 AM in serum-free medium for about 45 min at 37° C. Cells were washed in PBS and resuspended at 2×10^6 cells/ml in a [Ca^2+]i assay buffer (Sodium chloride, NaCl, about 140 mM, potassium chloride, KCl, about 2 mM, magnesium chloride, MgCl2, about 1 mM, calcium chloride, CaCl2, about 2 mM, in about 25 mM HEPES buffer at pH 7.4 with about 10 mM of glucose). Cytoplasmic [Ca^2+]i was determined at an excitation wavelength of about 331 nm and an emission wavelength of 410 nm using a fluorescence spectrophotometer (Hitachi, F-4000). Approximately 3×10^6 cells were used for [Ca^2+]l determination in a stirred quartz cuvette kept at about 37° C. OMPT or 18:1 LPA was dissolved in about 0.1% BSA/PBS solution and applied immediately to the cells. To test other LPA derivatives of the invention, cells were exposed to the derivatives for about 3 minutes or for a period of various times in time course related experiments before a LPA agonist, such as 18:1 LPA, OMPT, or other LPAs was applied into the cuvette.
The concentration of calcium mobilization giving the half-maximal response (EC50) was obtained from the concentration-response curve fitted to a sigmoidal logistic equation, with the maximal calcium response set to 100% using the GraphPad Prism. Maximal response value is expressed as mean +/−s.e.m. EC50 value is expressed with 95% confidence.

[8] = test system: PC-3 cells; assay: lamellipodia formation in PC-3 cells; format: cell-based, human; conditions: 30 μM
[9] = test system: PC-3 cells; assay: cell growth (cell viability) in PC-3 cells; format: cell-based, human; conditions: for inhibition of cell growth (cell viability): PC-3
[10] = test system: HT29 cells; assay: cell growth (cell viability) in HT29 cells; format: cell-based
[11] = test system: DU145 cells; assay: cell growth (cell viability) in DU145 cells; format: cell-based, human
[12] = test system: PC-3 cells; assay: focal adhesion in PC-3 cells; format: cell-based, human; conditions: FIG. 56
[13] = test system: DU145 cells; assay: cell migration of DU145 cells; format: cell-based, human
[14] = test system: DU145 cells; assay: calcium mobilization assay in androgen insensitive prostate cancer DU145 cells; format: cell-based, human
[15] = test system: HT29 cells; assay: lamellipodia formation in colon cancer HT29 cells; format: cell-based; conditions: for inhibition of 14:0 LPA-induced lamellipodia formation / inhibition of 1% FBS-induced lamellipodia formation / inhibition of 10% FBS-induced lamellipodia formation: HT29

lysophosphatidic acid [LPA, reference compound]
IL-8 transcription and secretion [1]: increases interleukin-8 (IL-8) transcription and stimulates IL-8 secretion
calcium mobilization [2]: does not induce the increase of intracellular calcium concentration
HA-Erk1 phosphorylation [3]: stimulates phosphorylation of HA-Erk1 in a dose-dependent manner
HA-Erk1 phosphorylation [4]: stimulates phosphorylation of HA-Erk1 in a dose-dependent manner
HA-Erk1 phosphorylation [5]: stimulates phosphorylation of HA-Erk1 in a dose-dependent manner

CCCCCCCCCCCCCCCCCC(=O)OC[C@@H](O)COP(=O)(O)OCC(O)CO (mixture of isomers) [18:0 LPG, 1-stearoyl-2-hydroxy-sn-glycero-3-[phospho-rac-(1-glycerol)]]
reduction of focal adhesion [6]: reduce focal adhesion
inhibition of (18:1) LPA-induced calcium mobilization [7]: inhibited LPA-induced calcium mobilization; also recorded: effective inhibitors/antagonists
effect on spontaneously activated lamellipodia ([8]; PC-3, serum-free, FIGS. 38-40): inhibit spontaneously activated lamellipodia
inhibition of 18:1 LPA-induced lamellipodia formation ([8]; PC-3, FIGS. 42-44): inhibition of 18:1 LPA-induced LPA2 receptor mediated lamellipodia formation
inhibition of cell growth (cell viability) ([9]; in the presence of 10 μM of 18:1 LPA, FIGS. 45-47): inhibition of cell growth (cell viability) at high concentrations
inhibition of cell growth (cell viability) ([9]; without LPA, FIGS. 46-47): inhibition of cell growth (cell viability) at high concentrations
reduction of cell viability / cell growth ([9]; PC-3 cells): reduced cell viability
inhibition of cell growth (cell viability) ([10]; FBS (1%), FIG. 36): inhibition of cell growth (cell viability) at high concentrations
inhibition of cell growth (cell viability) ([10]; FBS (10%), FIG. 36): but not in the presence of high concentrations of FBS (10%)
inhibition of cell growth (cell viability) ([10]; in the presence of 10 μM of 14:0 LPA, FIG. 35): inhibition of cell growth (cell viability) at high concentrations
reduction of cell viability / cell growth [11]: reduced cell viability
reduction of focal adhesion [12]: reduce focal adhesion
reduction of cell migration [13]: could reduce cell migration
inhibition of 14:0 LPA-induced calcium mobilization [14]: inhibited calcium mobilization
inhibition of lamellipodia ([15]; HT29, serum-free medium, 10 and 30 μM, FIGS. 24-25): inhibits lamellipodia in HT29 cells in a concentration dependent manner
inhibition of 14:0 LPA-induced lamellipodia formation ([15]; 10 μM, FIG. 27): inhibition of 14:0 LPA-induced LPA2 receptor mediated lamellipodia formation
inhibition of 1% FBS-induced lamellipodia formation ([15]; 10 μM, FIG. 30): inhibition of 1% FBS-induced LPA2 receptor mediated lamellipodia formation
inhibition of 10% FBS-induced lamellipodia formation ([15]; 10 μM, FIG. 33): no inhibition
inhibition of 14:0 LPA-induced lamellipodia formation ([15]; 30 μM, FIG. 28): inhibition of 14:0 LPA-induced LPA2 receptor mediated lamellipodia formation
inhibition of 1% FBS-induced lamellipodia formation ([15]; 30 μM, FIG. 31): inhibition of 1% FBS-induced LPA2 receptor mediated lamellipodia formation
inhibition of 10% FBS-induced lamellipodia formation ([15]; 30 μM, FIG. 34): no inhibition
